Laboratory results as given in patent US20240398783A1, “Compounds and Pharmaceutical Compositions Comprising Inhibitors of Amyloid Peptide Interactions with Glycosaminoglycans, Methods of Treatment and Use Thereof” (Gismo Therapeutics, Inc., priority 2021, published 2024).
Where a name gives a salt, the structure may show the parent alone. Read-outs that look alike come from different tables or passages of the source.

Experiments:
[1] = target: Tau binding to purified human brain membranes (Homo sapiens, UniProt P10636); assay: Inhibition of Tau binding to purified human brain cell membranes (ELISA)
Tau binding to purified human brain membranes, sequence (P10636 with tags, fused parts or gaps): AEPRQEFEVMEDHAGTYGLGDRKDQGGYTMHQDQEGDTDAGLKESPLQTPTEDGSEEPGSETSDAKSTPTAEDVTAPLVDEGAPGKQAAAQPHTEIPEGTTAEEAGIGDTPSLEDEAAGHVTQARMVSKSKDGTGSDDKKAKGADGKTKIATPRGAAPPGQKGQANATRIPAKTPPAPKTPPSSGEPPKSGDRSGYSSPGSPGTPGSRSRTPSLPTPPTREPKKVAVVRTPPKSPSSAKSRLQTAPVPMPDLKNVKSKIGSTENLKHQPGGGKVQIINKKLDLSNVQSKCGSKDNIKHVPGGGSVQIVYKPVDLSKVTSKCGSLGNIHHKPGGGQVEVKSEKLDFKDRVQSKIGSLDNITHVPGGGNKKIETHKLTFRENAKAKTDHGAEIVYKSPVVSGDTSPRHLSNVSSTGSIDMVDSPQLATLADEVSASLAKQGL
Procedure: (§1) Purified human brain cell membranes were prepared by differential centrifugation as follows. Five grams of frozen human brain postmortem tissue (obtained from University of Kentucky Alzheimer's Disease Center Tissue Bank) was homogenized in 50 ml HEPES-Buffered sucrose (0.32M sucrose, 4 mM HEPES pH7.4, protease inhibitors) with a motor driven glass-teflon homogenizer. After removing nuclear and cell debris by centrifugation of homogenates at 1,000×g for 10 min at 4 degree Celsius, post-nuclear supernatant was centrifuged at 100,000×g for 30 minutes to yield the crude membrane pellet. Crude membrane pellet was re-suspended in 0.32M sucrose, then centrifuged again at 100,000×g for 30 minutes to yield washed membrane pellet. Membrane pellet was resuspended in sterile PBS (pH7.4), quickly frozen, and kept in aliquots at −80 degrees Celsius. This preparation contains human brain cell membranes. Protein concentration was measured with BCA protein assay kit (Pierce Cat. No. 23227). Purified brain membranes were diluted to 0.01 mg/ml in PBS (pH 7.4) and then added to a 96 well polystyrene ELISA plate (NUNC Cat. No. 449824; 100 μl per well). Plates were incubated Over Night (ON) at 4 degrees Celsius. Following the incubation, the plate was washed consecutively, by immersion, with de-ionized water and PBS (pH 7.4). The ELISA plate was then blocked with nonfat milk (2%, 200 μl per well) for 2 hours at Room Temperature (RT). Following blocking, the plate was washed with de-ionized water then PBS (pH 7.4). GBAPs were dissolved and diluted in PBS (pH 6.5, supplemented with 0.1% BSA) at desired concentrations, added to the ELISA plates coated with brain membranes (100 μl per well) and incubated for 2 hours at RT with gentle shaking. Following incubation, the plate was washed with de-ionized water and three times with PBS (pH 6.5) plus Tween. Bound GBAP was detected by a monoclonal antibody specific for that GBAP, followed by incubation with secondary antibody conjugated to horseradish peroxidase (HRP). Antibody was diluted in PBS (pH6.5 supplemented with 1% BSA). Following each incubation with antibody, the plate was washed with de-ionized water and three times with PBS (pH6.5) wash buffer containing 0.1% Tween. The peroxidase substrate chromogen, TMB (Dako Cat. No. S1599) was added (100 μl per well) to the ELISA plate and incubated at room temperature. After 5 minutes ELISA Stop Solution (hydrochloric acid 1N, sulfuric acid 3N) was added (100 μl per well) to stop the peroxidase catalyzed colorimetric reaction. The Optical Density of the samples was measured at 450 nm using an ELISA plate reader (BioTek Synergy H1). Following color development, the % inhibition compared to control was determined. IC-50s were calculated using GraphPad Prism software.
The assay was performed as described in Example 49, with the following modifications.
Following to coating the plates with purified human brain cell membranes, plates were washed as described. The compounds were dissolved in DMSO at 10 mM final concentration and further diluted prior to assay. DMSO concentration in the screening well was up to 2%. Individual compounds were co-incubated with Tau on plates coated with purified human brain membranes. Tau purchased from rPeptide (Cat. No. T1001) was dissolved in DMSO (Sigma Cat. No. D2650), quickly frozen and kept in aliquots at −80 degrees Celsius. Tau dissolved in PBS (pH 6.5, supplemented with BSA, 0.1%) was added to the ELISA plate (100 μl per well) and incubated for 2 hours at RT with gentle shaking. Following the incubation, the plate was washed with de-ionized water and three times with PBS (pH 6.5) plus Tween. Bound Tau was detected by anti-Tau Monoclonal Antibody D-8 (Santa Cruz Cat. No. sc-166060), followed by secondary anti-IgG antibody conjugated to HRP (R&D System, Cat. No. HAF007). Following to color development with TMB, as described in Example 49, the Optical Density of the samples was measured at 450 nm using an ELISA plate reader. […]

[2] = target: T1, Amyloid-beta(1-42) oligomer binding to purified human brain membranes (Homo sapiens, UniProt P05067); assay: Inhibition of Amyloid-beta(1-42) oligomer binding to purified human brain cell membranes (ELISA); conditions: Abeta(1-42) oligomers, read-out: Abeta42/Membrane Activity (IC-50)
T1 construct: Beta-amyloid (1-42) was purchased from rPeptide (Cat. No. A1163); purchased rPeptide A1163
T1 sequence (P05067 672-713): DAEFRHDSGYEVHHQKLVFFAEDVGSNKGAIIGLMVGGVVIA
Procedure: as §1
(§2) The assay was performed as described in Example 49, with the following modifications. Following to coating the plates with purified human brain cell membranes, plates were washed as described. The compounds were dissolved in DMSO at 10 mM final concentration and further diluted prior to assay. DMSO concentration in the screening well was up to 2%. Individual compounds were co-incubated with Beta-amyloid peptides on plates coated with purified human brain membranes. Beta-amyloid (1-42) oligomers were prepared as described in Example 2. Beta-amyloid (1-40) from rPeptide (Cat No. A1153) was dissolved in DMSO, quickly frozen and kept in aliquots at −80 degrees Celsius. Beta-amyloid (1-42) oligomers or Beta-amyloid (1-40) dissolved in PBS (pH 6.5, supplemented with BSA, 0.1%) were added to the ELISA plate (100 μl per well) and incubated for 2 hours at RT with gentle shaking. Following the incubation, the plate was washed with de-ionized water and three times with PBS (pH 6.5) plus Tween. […]

[3] = target: T2, Amyloid-beta(1-40) binding to purified human brain membranes (Homo sapiens, UniProt P05067); assay: Inhibition of Amyloid-beta(1-40) binding to purified human brain cell membranes (ELISA); conditions: Abeta(1-40), read-out: Abeta40/Membrane Activity (IC-50)
T2 construct: Beta-amyloid (1-40) from rPeptide (Cat No. A1153) was dissolved in DMSO; purchased rPeptide A1153
T2 sequence (P05067 672-711): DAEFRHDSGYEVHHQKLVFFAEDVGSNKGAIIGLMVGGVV
Procedure: as §1, §2

[4] = Tau, purified human brain membranes, read-out: Tau/Membrane Activity (IC-50)

SMILES | IC50 [2] [µM] | IC50 [3] [µM] | also measured
Cc1cc(-n2ccnc2)ccc1/C=N/Nc1ccnc2cc(Cl)ccc12 [Compound 1, (E)-4-((E)-(4-(1H-imidazol-1-yl)-2-methylbenzylidene)hydrazono)-7-chloro-1,4-dihydroquinoline] | 2.97 |  | IC50 [1, 4]: 0.49 µM
Cc1ncn(-c2ccc(/C=N/Nc3ccnc4cc(Cl)ccc34)cc2)c1C [Compound 2, (E)-7-chloro-4-((E)-(4-(4,5-dimethyl-1H-imidazol-1-yl)benzylidene)hydrazono)-1,4-dihydroquinoline] |  |  | IC50 [1]: 11.4 µM
Fc1ccc2c(N/N=C/c3ccc(-n4ccnc4)cc3)ccnc2c1 [Compound 5, (E)-4-(2-(4-(1H-imidazol-1-yl)benzylidene)hydrazinyl)-7-fluoroquinoline] |  |  | IC50 [1]: 0.84 µM
Fc1ccc2c(N/N=C/c3ccc(CN4CCOCC4)cc3)ccnc2c1 [Compound 6, (E)-4-(4-((2-(7-fluoroquinolin-4-yl)hydrazono)methyl)benzyl)morpholine] |  |  | IC50 [1]: 0.63 µM
CN1CCN(Cc2ccc(/C=N/Nc3ccnc4cc(Cl)ccc34)cc2)CC1 [Compound 7, (E)-7-chloro-4-(2-(4-((4-methylpiperazin-1-yl)methyl)benzylidene)hydrazinyl)quinolone] |  |  | IC50 [1]: 1.22 µM
COc1cc2nccc(NN=Cc3ccc(-n4ccnc4)c(C)c3)c2cc1OC [Compound 11, 4-(2-(4-(1H-imidazol-1-yl)-3-methylbenzylidene)hydrazineyl)-6,7-dimethoxyquinoline hydrochloride] |  |  | IC50 [1]: 8.31 µM
COc1ccc2c(NN=Cc3ccc(-n4ccnc4)c(C)c3)ccnc2c1 [Compound 12, 4-(2-(4-(1H-imidazol-1-yl)-3-methylbenzylidene)hydrazineyl)-7-methoxyquinoline] |  |  | IC50 [1]: 29.9 µM
Cc1ncn(-c2ccc(/C=N\Nc3ncnc4cc(Cl)ccc34)cn2)c1C [Compound 15, 7-chloro-4-(2-((6-(4,5-dimethyl-1H-imidazol-1-yl)pyridin-3-yl)methylene)hydrazineyl)quinazoline hydrochloride] | 7.05 |  | 
C/C(=N\Nc1ncnc2cc(Cl)ccc12)c1ccc(-n2cc[n+](C)c2)nc1 [Compound 17, (E)-1-(5-(1-(2-(7-chloroquinazolin-4-yl)hydrazineylidene)ethyl)pyridin-2-yl)-3-methyl-1H-imidazol-3-ium iodide phosphoric acid salt] |  | 27.9 | 
C/C(=N\Nc1ncnc2cc(Cl)ccc12)c1ccc(-n2cc(C)nc2C)nc1 [Compound 18, (E)-7-chloro-4-(2-(1-(6-(2,4-dimethyl-1H-imidazol-1-yl)pyridin-3-yl)ethylidene)hydrazineyl)quinazoline phosphoric acid salt] |  | 17.3 | 
C/C(=N\Nc1ncnc2ccccc12)c1ccc(-n2cc(C)nc2C)nc1 [Compound 19, (E)-4-(2-(1-(6-(2,4-dimethyl-1H-imidazol-1-yl)pyridin-3-yl)ethylidene)hydrazineyl)quinazoline] |  | 3.09 | 
C/C(=N\Nc1ncnc2cc(F)ccc12)c1ccc(-n2cnc(C)c2C)nc1 [Compound 21, (E)-4-(2-(1-(6-(4,5-dimethyl-1H-imidazol-1-yl)pyridin-3-yl)ethylidene)hydrazineyl)-7-fluoroquinazoline] | 3.3 | 5.95 | 
CC(=NNc1ccnc2cc(Cl)ccc12)c1ccc(-n2cnc(C)c2C)nc1 [Compound 22, 7-chloro-4-(2-(1-(6-(4,5-dimethyl-1H-imidazol-1-yl)pyridin-3-yl)ethylidene)hydrazineyl)quinoline] | 3.56 | 1.78 | 
Cc1ncn(-c2ccc(Nc3ncnc4cc(Cl)ccc34)cn2)c1C [Compound 25, 7-chloro-N-(6-(4,5-dimethyl-1H-imidazol-1-yl)pyridin-3-yl)quinazolin-4-amine] | 7.01 | 4.68 | 
C/C(=N\Nc1ncnc2cc(F)ccc12)c1ccc(-n2cc[n+](C)c2)nc1 [Compound 26, (E)-1-(5-(1-(2-(7-fluoroquinazolin-4-yl)hydrazineylidene)ethyl)pyridin-2-yl)-3-methyl-1H-imidazol-3-ium phosphoric acid salt] |  | 1.51 | 
C/C(=N\Nc1ncnc2cc(Cl)ccc12)c1ccc(-n2cc(C)nc2C)nc1 [Compound 27, (E)-7-chloro-4-(2-(1-(6-(2,4-dimethyl-1H-imidazol-1-yl)pyridin-3-yl)ethylidene)hydrazineyl)quinazoline hydrochloride] | 3.97 | 2.23 | 
CC(=NNc1ncnc2cc(Cl)ccc12)c1ccnc(-n2cnc(C)c2C)c1 [Compound 28, 7-chloro-4-(2-(1-(2-(4,5-dimethyl-1H-imidazol-1-yl)pyridin-4-yl)ethylidene)hydrazineyl)quinazoline] |  | 3.71 | 
Clc1ccc2c(Nc3ccc(-n4cncn4)nc3)ncnc2c1 [Compound 34, N-(6-(1H-1,2,4-triazol-1-yl)pyridin-3-yl)-7-chloroquinazolin-4-amine phosphoric acid salt] | 10.4 |  | 
Fc1cc(/C=N/Nc2ccnc3cc(Cl)ccc23)ccc1-n1ccnc1 [Compound 35, (E)-7-chloro-4-(2-(3-fluoro-4-(1H-imidazol-1-yl)benzylidene)hydrazineyl)quinoline hydrochloride] | 10.4 | 41.5 | 
CC(=NNc1ccnc2cc(Cl)ccc12)c1ccc(-n2ccnc2)cc1 [Compound 36, 4-(2-(1-(4-(1H-imidazol-1-yl)phenyl)ethylidene)hydrazineyl)-7-chloroquinoline phosphate] | 18.7 |  | 
CCN1CCN(c2ccc(Nc3ccnc4cc5ccccc5cc34)cc2)CC1 [Compound 39, N-(4-(4-ethylpiperazin-1-yl)phenyl)benzo[g]quinolin-4-amine] |  | 1.46 | IC50 [1]: 54.1 µM
Clc1ccc2c(Nc3ccc(-n4ccnc4)nc3)ncnc2c1 [Compound 41, N-(6-(1H-imidazol-1-yl)pyridin-3-yl)-7-chloroquinazolin-4-amine] |  | 18.7 | IC50 [1, 4]: 5.58 µM
CCN(CC)Cc1cccc(Nc2ccnc3cc(Cl)ccc23)c1 [Compound 42, 7-chloro-N-(3-((diethylamino)methyl)phenyl)quinolin-4-amine] |  | 6.56 | 
Clc1ccc2c(Nc3ccc(-n4cncn4)nc3)ccnc2c1 [Compound 44, N-(6-(1H-1,2,4-triazol-1-yl)pyridin-3-yl)-7-chloroquinolin-4-amine] |  | 43 | 
